Measurements: patent US12281363B2, “Methods for detecting antiviral-drug resistant virus” (Secretary of State for Health and Social Care, priority 2018, dated 2025)
Read-outs that look alike come from different tables or passages of the source.

System: HSV-1
Experiment: Plaque reduction assay, HSV-1 clinical isolates on Vero cells
Format: cell-based
Conditions: Human alphaherpesvirus 1, Vero
From the text: Viral isolates were used to infect a sub-confluent monolayer of Vero cells at a concentration of 75 or 50 plaque forming units (PFU) per well for HSV-1 and HSV-2, respectively. […] CMC medium typically used to create a semisolid interface and prevents indiscrimate viral spreading. Other materials (e.g. agar) may also be used to create this interface.
Cells were fixed with 10% formalin and stained with crystal violet before enumeration of the plaques (microscopic observation or use of fluorescent antibodies for detection is also suitable). The data obtained from these experiments were then expressed as percent inhibition of viral infectivity relative to the no drug control.
Definitions of phenotypic drug susceptibility classification as sensitive or resistant were as follows: ACV, <3 μM or >40 μM; PCV, <10 μM or >40 μM; CDV, <24 μM or >30 μM; FOS, <250 μM or >400 μM; and ACV, <6.5 μM or >40 μM; PCV, <38 μM or >40 μM; FOS, <250 μM or >400 μM for HSV-1 and HSV-2, respectively. Any IC50 values falling in between these sensitive and resistant cut-offs were reported as intermediate resistance.
The phenotype (i.e. reactivity to a drug) of the virus was characterised by the plaque reduction assay as described above.

SMILES: Nc1nc2c(ncn2CCC(CO)CO)c(=O)[nH]1 [Penciclovir, penciclovir]
- IC50 (isolate HPG033, HSV-1 TK I358L (1072A>C), also TK T287M, read-out: Drug susceptibility (IC50 value)): > 160 µM
- IC50 (isolate HPG033, HSV-1 TK I358L (1072A>C), also TK T287M, read-out: Drug susceptibility Penciclovir (PCV)): > 40 µM
- IC50 (isolate HPG033, HSV-1 pol N1046T (3137A>C), also TK T287M, pol A1169T, read-out: Drug susceptibility (IC50 value)): > 160 µM
- IC50 (isolate HPG033, HSV-1 pol N1046T (3137A>C), also TK T287M, pol A1169T, read-out: Drug susceptibility Penciclovir (PCV)): > 40 µM
- IC50 (isolate HPG035, HSV-1 pol S239L (716C>T), also pol S724N, read-out: Drug susceptibility (IC50 value)): 14.6 µM
- IC50 (isolate HPG035, HSV-1 pol S239L (716C>T), also pol S724N, read-out: Drug susceptibility Penciclovir (PCV)): 10 to 40 µM
- IC50 (isolate HPG037, HSV-1 TK L69M (205>A), also TK Y239H, read-out: Drug susceptibility Penciclovir (PCV)): > 40 µM
- IC50 (isolate HPG037, HSV-1 TK R256W (766C>T), read-out: Drug susceptibility (IC50 value)): > 160 µM
- IC50 (isolate HPG037, HSV-1 TK R256W (766C>T), read-out: Drug susceptibility Penciclovir (PCV)): > 40 µM
- IC50 (isolate HPG037, HSV-1 TK Y239H (715T>C), read-out: Drug susceptibility (IC50 value)): > 160 µM
- IC50 (isolate HPG037, HSV-1 TK Y239H (715T>C), read-out: Drug susceptibility Penciclovir (PCV)): > 40 µM
- IC50 (isolate HPG039, HSV-1 TK 85* or H58fs (169delC, 170delC, 171delC, or 172delC), read-out: Drug susceptibility (IC50 value)): 158 µM
- IC50 (isolate HPG039, HSV-1 TK 85* or H58fs (169delC, 170delC, 171delC, or 172delC), read-out: Drug susceptibility Penciclovir (PCV)): > 40 µM
- IC50 (isolate HPG040, HSV-1 pol S911N (2732G>A), also TK deletion (C) nt 896-900, pol A1169T, read-out: Drug susceptibility (IC50 value)): > 160 µM
- IC50 (isolate HPG040, HSV-1 pol S911N (2732G>A), also TK deletion (C) nt 896-900, pol A1169T, read-out: Drug susceptibility Penciclovir (PCV)): > 40 µM
- IC50 (isolate HPG041, HSV-1 pol S911N (2732G>A), also pol A1169T, read-out: Drug susceptibility (IC50 value)): 3 µM
- IC50 (isolate HPG041, HSV-1 pol S911N (2732G>A), also pol A1169T, read-out: Drug susceptibility Penciclovir (PCV)): < 10 µM
- IC50 (isolate HPG042, HSV-1 pol A972V (2915C>T), also TK deletion (C) nt 881-885, pol A1169T, read-out: Drug susceptibility (IC50 value)): > 160 µM
- IC50 (isolate HPG042, HSV-1 pol A972V (2915C>T), also TK deletion (C) nt 881-885, pol A1169T, read-out: Drug susceptibility Penciclovir (PCV)): > 40 µM
- IC50 (isolate HPG042, HSV-1 pol G22R (64G>A), also TK deletion (C) nt 881-885, pol A1169T, read-out: Drug susceptibility (IC50 value)): > 160 µM
- IC50 (isolate HPG042, HSV-1 pol G22R (64G>A), also TK deletion (C) nt 881-885, pol A1169T, read-out: Drug susceptibility Penciclovir (PCV)): > 40 µM
- IC50 (isolate HPG043, HSV-1 TK 183* (437_438insA), read-out: Drug susceptibility (IC50 value)): > 160 µM
- IC50 (isolate HPG043, HSV-1 TK 183* (437_438insA), read-out: Drug susceptibility Penciclovir (PCV)): > 40 µM
- IC50 (isolate HPG045, HSV-1 TK L49R (146T>G), read-out: Drug susceptibility (IC50 value)): > 160 µM
- IC50 (isolate HPG045, HSV-1 TK L49R (146T>G), read-out: Drug susceptibility Penciclovir (PCV)): > 40 µM
- IC50 (isolate HPG045, HSV-1 pol L419I (1255C>A), also TK L49R, pol A1169T, read-out: Drug susceptibility (IC50 value)): > 160 µM
- IC50 (isolate HPG045, HSV-1 pol L419I (1255C>A), also TK L49R, pol A1169T, read-out: Drug susceptibility Penciclovir (PCV)): > 40 µM
- IC50 (isolate HPG046, HSV-1 TK I166N (497T>A), read-out: Drug susceptibility (IC50 value)): 98.5 µM
- IC50 (isolate HPG046, HSV-1 TK I166N (497T>A), read-out: Drug susceptibility Penciclovir (PCV)): > 40 µM
- IC50 (isolate HPG047, HSV-1 pol E680 (2039A>C), also TK deletion (C) nt 548-553, pol A1169T, read-out: Drug susceptibility Penciclovir (PCV)): > 40 µM
- IC50 (isolate HPG050, HSV-1 TK Q34* (100C>T), read-out: Drug susceptibility (IC50 value)): > 160 µM
- IC50 (isolate HPG050, HSV-1 TK Q34* (100C>T), read-out: Drug susceptibility Penciclovir (PCV)): > 40 µM
- IC50 (isolate HPG051, HSV-1 pol D83A (248A>C), also TK R176stop, read-out: Drug susceptibility (IC50 value)): > 160 µM
- IC50 (isolate HPG051, HSV-1 pol D83A (248A>C), also TK R176stop, read-out: Drug susceptibility Penciclovir (PCV)): > 40 µM
- IC50 (isolate HPG052, HSV-1 TK Q34* (100C>T), read-out: Drug susceptibility (IC50 value)): 25 µM
- IC50 (isolate HPG052, HSV-1 TK Q34* (100C>T), read-out: Drug susceptibility Penciclovir (PCV)): 10 to 40 µM
- IC50 (isolate HPG053, HSV-1 pol L802R + A834S (2405T>G, 2500G>T), also TK R176W, read-out: Drug susceptibility Penciclovir (PCV)): > 40 µM
- IC50 (isolate HPG053, HSV-1 pol S911N (2732G>A), also TK R176W, pol A1169T, read-out: Drug susceptibility (IC50 value)): > 160 µM
- IC50 (isolate HPG053, HSV-1 pol S911N (2732G>A), also TK R176W, pol A1169T, read-out: Drug susceptibility Penciclovir (PCV)): > 40 µM
- IC50 (isolate HPG054, HSV-1 pol E992K (2974G>A), also TK insert (G) nt 430-436, pol A1169T, read-out: Drug susceptibility (IC50 value)): > 160 µM
- IC50 (isolate HPG054, HSV-1 pol E992K (2974G>A), also TK insert (G) nt 430-436, pol A1169T, read-out: Drug susceptibility Penciclovir (PCV)): > 40 µM
- IC50 (isolate HPG055, HSV-1 TK V204G (611T>G), also pol A1169AT, read-out: Drug susceptibility (IC50 value)): 9.34 µM
- IC50 (isolate HPG055, HSV-1 TK V204G (611T>G), also pol A1169AT, read-out: Drug susceptibility Penciclovir (PCV)): < 10 µM
- IC50 (read-out: Drug susceptibility (IC50 value), isolate HPG005, HSV-1 TK A192T (574G>A)): 5.19 µM
- IC50 (read-out: Drug susceptibility (IC50 value), isolate HPG006, HSV-1 pol G121S (361G>A), also a TK resistance mutation (footnote a)): > 160 µM
- IC50 (read-out: Drug susceptibility (IC50 value), isolate HPG012, HSV-1 pol G985E (2954G>A), also TK A93V): 9.67 µM
- IC50 (read-out: Drug susceptibility (IC50 value), isolate HPG016, HSV-1 pol A1169T (3505G>A)): 7.19 µM
- IC50 (read-out: Drug susceptibility (IC50 value), isolate HPG037, HSV-1 TK L69M (205>A), also TK Y239H): > 160 µM
- IC50 (read-out: Drug susceptibility (IC50 value), isolate HPG042, HSV-1 TK frameshift (881delC to 885delC)): > 160 µM
- IC50 (read-out: Drug susceptibility (IC50 value), isolate HPG047, HSV-1 pol E680 (2039A>C), also TK deletion (C) nt 548-553, pol A1169T): > 160 µM
- IC50 (read-out: Drug susceptibility Penciclovir (PCV), isolate HPG005, HSV-1 TK A192T (574G>A)): < 10 µM
- IC50 (read-out: Drug susceptibility Penciclovir (PCV), isolate HPG006, HSV-1 pol G121S (361G>A), also a TK resistance mutation (footnote a)): > 40 µM
- IC50 (read-out: Drug susceptibility Penciclovir (PCV), isolate HPG012, HSV-1 pol G985E (2954G>A), also TK A93V): 10 to 40 µM
- IC50 (read-out: Drug susceptibility Penciclovir (PCV), isolate HPG016, HSV-1 pol A1169T (3505G>A)): < 10 µM
- IC50 (read-out: Drug susceptibility Penciclovir (PCV), isolate HPG042, HSV-1 TK frameshift (881delC to 885delC)): > 40 µM
